The text below walks through data of a melting point compilation (Tetko et al.).

In general, melting point refers to the temperature, or range, at which the solid turns liquid.

In turn, `Cc1nn(-c2ccccc2)c2ncc(C(=O)O)cc12` yielded a melting point of 278 to 280 °C. Next, `CCOC(=O)c1c(N=C=S)sc(C)c1C`: 67 to 69 °C; `CN(C)c1cccc(Cl)c1C=O`: 26 to 28 °C; `CCN(CC)C(=O)c1ccc(S(=O)(=O)Cl)cc1`: 59 to 61 °C. Compound `Oc1ccnc2cc(Br)ccc12` showed a melting point of 286 to 288 °C.

The compound `O=C1CCCOc2cc(F)ccc21` registered a melting point of 37 to 39 °C. `CC(NS(=O)(=O)Cc1ccccc1)C(=O)O` (centres undefined) displayed a melting point of 119 to 121 °C.

`COc1ccc(-c2nnc(S)n2N)cc1OC` displayed a melting point of 204 to 208 °C. With `CC1(C2CCNCC2)NC(=O)NC1=O` (centres undefined), the melting point was in the range of 243 to 245 °C.

In turn, `NCCCc1nc(C2CC2)n[nH]1` had a melting point of 207 to 209 °C. `Cc1ccc(-c2nc(CCl)co2)cc1` had a melting point of 97 to 99 °C. In turn, `O=C(O)c1cccnc1-n1cccn1` had a melting point of 106 to 108 °C. The figure for `O=C(O)c1occc1CN1C(=O)Cc2ccccc21` is 203 to 205 °C. Next, `NCc1ccc(Cn2cnc3ccccc32)cc1`: 72 to 74 °C; `C#CCn1nc(C)c(C)c1C`: 74 to 76 °C; `COC(=O)c1ccc(C(=O)OC)c(S(=O)(=O)Cl)c1`: 63 to 67 °C.

Compound `NNC(=O)c1cc2ccccc2o1` had a melting point of 171 to 173 °C. Next, `Cc1ccc2nc(C)c(C(=O)O)cc2c1`: 174 to 176 °C; `O=C(O)c1ccc(NS(=O)(=O)C(F)(F)F)cc1`: 226 to 228 °C. Next, `COC(=O)c1cc2ccccc2n1C`: 69 to 71 °C.

Consider `Nc1ccc(-n2cncn2)c(F)c1`, for which the melting point was in the range of 126 to 128 °C. In turn, `O=C(O)CCc1ccc(-c2ccccc2F)o1` came in with a melting point of 117 to 119 °C. The figure for `CCNc1nc(C(=O)OCC)cs1` is 92 to 94 °C; for `N#CC=Cc1ccc(C(F)(F)F)cc1` it is 89 to 91 °C. In turn, `COC(=O)C1CCN(c2nc3ccccc3o2)CC1` had a melting point of 106 to 108 °C. Next, `NC(=O)c1ccc(F)c(N)c1`: 137 to 139 °C. Next, `Nc1cccc(CN2CCC(O)CC2)c1`: 146 to 148 °C; `O=C(CCl)N1CCN(S(=O)(=O)c2c(F)cccc2F)CC1`: 119 to 121 °C.

With `O=[N+]([O-])c1ccccc1OCC1CO1` (centres undefined), the melting point lay in the range of 52 to 54 °C.

Turning to `COc1cccnc1N`, the melting point was in the range of 76 to 78 °C. Next, `CC(C)(C)c1ccc(C2(C(=O)O)CCC2)cc1`: 179 to 181 °C. `O=C(Cn1cc(C(=O)O)cn1)NC1CCCCC1`: the melting point was 247 to 249 °C. The figure for `CCN(CC)C(=O)c1ccc(O)cc1` is 120 to 122 °C; for `N#CCc1nccn1CC(F)(F)F` it is 106 to 108 °C; for `O=C(O)c1cccc(C2CCCOC2)c1` (centres undefined) it is 82 to 84 °C. Next, `CN1CCC2(CC1)NC(=O)NC2=O`: 283 to 285 °C; `NC(CC1CCOC1)C(=O)O` (centres undefined): 269 to 271 °C; `COc1ccc(-c2ccc(C#N)cc2)cc1`: 102 to 104 °C. Next, `Cc1nn(C)c(C)c1S(=O)(=O)NC(C)C(=O)O` (centres undefined): 197 to 199 °C; `Nc1cccc(Cl)c1-n1cncn1`: 122 to 124 °C. The compound `Nc1ccc2c(c1)C(=O)CCC2` came in with a melting point of 126 to 128 °C. Regarding `c1ccc2oc(N3CCNCC3)nc2c1`, the melting point lay within 74 to 76 °C. Next, `CCC(=O)Nc1cccc(C#N)c1`: 84 to 86 °C; `O=C(O)c1cc(N2CCOCC2)ccn1`: 257 to 259 °C. Next, `Nc1cc(S(N)(=O)=O)ccc1F`: 134 to 136 °C. The figure for `O=c1onc(-c2ccccc2)n1CC1CO1` (centres undefined) is 81 to 83 °C; for `Cc1cc(O)n2ncnc2c1` it is 254 to 256 °C.

`COC(=O)c1nccc(Cl)c1F`: the melting point is 49 to 51 °C.

In turn, `COC(=O)c1sc(N)nc1C(C)(C)C` gave a melting point of 158 to 160 °C.

For `COc1ccc(C(=O)Nc2ccccc2C(=O)O)cc1`, the melting point lay within 184 to 186 °C.

`NNC(=O)c1n[nH]c2c1CCCC2`: the melting point is 176 to 178 °C.

The compound `CC(C)NS(=O)(=O)c1ccc(N)cc1` came in with a melting point of 112 to 114 °C. Next, `Nc1ccc(S(=O)(=O)CC2CCOC2)cc1` (centres undefined): 118 to 120 °C; `COC(=O)COc1cc(C(=O)O)ccc1OC`: 144 to 146 °C. The figure for `O=C1COc2ccc(C(=O)O)cc2N1` is 228 to 230 °C; for `CCNS(=O)(=O)c1ccc(C)c(C(=O)O)c1` it is 181 to 183 °C.

Compound `c1ccc(-c2nnco2)cc1` showed a melting point of 35 to 37 °C.

`CCC(=O)c1ccc(Cl)s1` displayed a melting point of 47 to 49 °C.

With `CC1CCN(CC(=O)O)CC1`, the melting point fell in the range of 147 to 149 °C. As to `O=C(O)Cn1cc([N+](=O)[O-])cn1`, the melting point was 153 to 155 °C. The compound `CS(=O)(=O)N1CCCC1C(=O)O` (centres undefined) registered a melting point of 52 to 54 °C.

With `CSc1ccc2c(c1)CCCC2=O`, the melting point was in the range of 74 to 76 °C. The figure for `O=C(O)c1cnn(CCCl)c1` is 147 to 149 °C; for `CCOC(=O)c1cnn2c1NCCC2` it is 159 to 161 °C.

In the case of `Cc1nn(-c2ccccc2)c2sc(C(=O)O)cc12`, the melting point lay in the range of 234 to 236 °C. The figure for `CCC(C)n1c(S)nnc1-c1ccccc1` (centres undefined) is 166 to 168 °C; for `CC(C)C(Br)C(=O)N1CCc2sccc2C1` (centres undefined) it is 84 to 86 °C. Next, `Nc1ccc(C(=O)O)nc1Cl`: 214 to 216 °C; `O=C(NCc1ccc2c(c1)OCO2)C(Cl)c1ccccc1` (centres undefined): 104 to 106 °C; `Nc1cccc(N2C(=O)CC3(CCCC3)C2=O)c1`: 136 to 138 °C. Next, `Cc1cccc(S(N)(=O)=O)n1`: 165 to 167 °C; `Nc1ccccc1N1CCOC1=O`: 88 to 90 °C; `Oc1cccc(CNC2CC2)c1`: 125 to 127 °C. Regarding `COc1cccc(CO)c1OC(F)F`, the melting point fell in the range of 77 to 79 °C. As for `O=C(O)C=Cc1ccnc2ccccc12`, the melting point is 256 to 258 °C. The figure for `Cc1n[nH]c(C)c1S(=O)(=O)N1CCC(C)CC1` is 178 to 180 °C; for `O=C(O)CNS(=O)(=O)c1c(F)cc(F)cc1Br` it is 136 to 138 °C; for `Clc1ncnc2ccc(Br)cc12` it is 166 to 168 °C. Next, `C#CCOc1ccc(Br)cc1C=O`: 94 to 98 °C. Next, `O=Cc1nc(-c2ccccc2)c[nH]1`: 170 to 172 °C; `O=C(O)CNC(=O)c1cc2c(s1)CCC2`: 207 to 209 °C. For `O=C(CCl)Nc1cccc(S(=O)(=O)N=C2CCCCCN2)c1`, the melting point was in the range of 133 to 135 °C. Next, `O=C(CCl)N1CCN(C(=O)Nc2ccccc2)CC1`: 168 to 170 °C. `NC(C(=O)O)c1cccs1` (centres undefined) yielded a melting point of 208 to 210 °C. The figure for `Oc1nnnn1-c1ccc(Cl)cc1` is 141 to 143 °C; for `O=C(O)c1cncs1` it is 169 to 171 °C; for `Cc1nc(N)sc1Cc1cccc(F)c1` it is 82 to 84 °C. The compound `Cc1ccc(CN(C)c2ccc(C(=O)O)cc2)cc1` had a melting point of 177 to 179 °C. For the compound `CNS(=O)(=O)c1ccc(C(C)=O)cc1`, the melting point was 109 to 111 °C.
